According to BindingDB's records for PubMed 2017157 (Medical Research Service, 1991):

target: D(2) dopamine receptor (Mus musculus, UniProt P61168)
Sequence (P61168 whole entry): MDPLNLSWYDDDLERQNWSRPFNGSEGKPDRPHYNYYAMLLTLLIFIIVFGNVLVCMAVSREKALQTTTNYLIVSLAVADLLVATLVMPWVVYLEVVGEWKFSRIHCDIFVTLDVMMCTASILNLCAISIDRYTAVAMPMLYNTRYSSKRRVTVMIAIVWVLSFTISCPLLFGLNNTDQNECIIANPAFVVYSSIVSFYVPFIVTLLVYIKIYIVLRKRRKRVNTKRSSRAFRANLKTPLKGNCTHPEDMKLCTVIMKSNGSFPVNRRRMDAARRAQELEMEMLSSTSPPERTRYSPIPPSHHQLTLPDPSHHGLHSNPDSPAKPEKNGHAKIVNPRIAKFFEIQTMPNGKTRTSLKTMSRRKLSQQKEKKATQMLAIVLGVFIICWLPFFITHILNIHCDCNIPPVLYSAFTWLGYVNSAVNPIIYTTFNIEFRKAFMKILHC

First: O=c1[nH]c2ccccc2n1C1CCN(CCCC(c2ccc(F)cc2)c2ccc(F)cc2)CC1 [1-(1-(4,4-bis(4-fluorophenyl)butyl)piperidin-4-yl)-1H-benzo[d]imidazol-2(3H)-one]
Second: OCCN1CCN(CC/C=C2/c3ccccc3Sc3ccc(C(F)(F)F)cc32)CC1 [(cis) 2-{4-[3-(2-Trifluoromethyl-thioxanthen-9-ylidene)-propyl]-piperazin-1-yl}-ethanol(Flupentixol)]
The Ki of the first is 2.5-fold lower: 0.19 nM for the first, 0.48 nM for the second. The first binds more tightly here.

Going from CCCN1CCCC(c2cccc(O)c2)C1 (configuration not stated) [CAS_85976-54-1] to CCN1CCCC1CNC(=O)c1cc(S(N)(=O)=O)ccc1OC (configuration not stated) [N-[(1-ethylpyrrolidin-2-yl)methyl]-2-methoxy-5-sulfamoylbenzamide], the Ki falls from 5620 nM to 14.4 nM (390-fold).

First: CC(C)C[C@H]1C(=O)N2CCC[C@H]2[C@]2(O)O[C@](NC(=O)[C@@H]3C=C4c5cccc6[nH]c(Br)c(c56)C[C@H]4N(C)C3)(C(C)C)C(=O)N12 [Bromocriptine+ (GTP+)]
Second: CCN1CCC[C@H]1CNC(=O)c1cc(I)cc(OC)c1OC
The Ki of the first is 14-fold higher: 0.69 nM for the first, 0.05 nM for the second. The second binds more tightly here.

O=C(O)c1ccccc1C(=O)Nc1cccc2ccccc12 [NPA,(+)] was tested, and the Ki was 7.07 nM.
